In patent US20230159486A1, “SUBSTITUTED THIOPHENECARBOXAMIDES AND ANALOGUES AS ANTIBACTERIALS AGENTS” (Bayer Aktiengesellschaft, priority 2018, published 2023) one finds relative fluorescence value data, which are given here for 1 molecule.

The assay concerns salicylate responsive promoter sequence of the PR1 (pathogenesis-related protein 1) gene (AT2G14610). Briefly: Induction of defense gene expression in Arabidopsis thaliana (PR1 promoter-GFP reporter plants). It is filed as in vivo. The conditions noted are these: 300 ppm, 3rd day after spraying; mock treated leaves set as 1.00. The procedure:
Arabidopsis thaliana reporter plants containing the coding sequence of a green fluorescent protein (GFP) linked to the salicylate responsive promoter sequence of the PR1 (pathogenesis-related protein 1) gene (AT2G14610) were grown for five days and then sprayed with compounds. On the 3rd day after spraying, plant fluorescence was assessed with a MacroFluo instrument from Leica Microsystems (Wetzlar, Germany). Fluorescences were quantified with the Meta-Morph Microscopy Automation & Image Analysis Software (Molecular Devices, Sunnyvale, Calif., United States). Background fluorescence in mock treated leaves was set as 1.00.

`O=C(O)c1ccccc1O` [Salicylic acid] returned a relative fluorescence value of 2.70.
